Patent US12582706B2, “Tolerogenic antigen presenting cells” (Cell4Cure AB, priority 2019, dated 2026)

Experiments:
CD4^+ T cells [1] = test: Capacity of DCs to induce T cell proliferation in allogeneic MLR (3H-thymidine); type: cell-based, human; conditions: for induction of T cell proliferation (CPM): Example 13, FIG. 13(G), compared to control DCs; for effect on the tolerogenic effect of RA: Example 13, summary
Method: (§1) CD14^+ monocytes were cultured at 1.25×10^6 cells/mi for 7 days in GMP DC Medium (CellGenix, Freiburg, Germany) containing HEPES, GlutaMAX and Penicillin-Streptomycin solution (Thermo Fisher, Waltham, MA) in the presence of granulocyte-macrophage colony-stimulating factor (GM-CSF; 100 ng/ml; PeproTech, London, UK) and interleukin-4 (IL-4; 100 ng/ml; PeproTech). Cells were replenished on day 3 with fresh medium and cytokines. Control DCs were differentiated in GM-CSF and IL-4 without addition of any further compounds and optionally further were treated with lipopolysaccharide (LPS; 0.5 ug/ml; Sigma-Aldrich, Saint Louise, MO) or a pro-inflammatory cytokine cocktail consisting of TNFalpha (10 ng/ml; PeproTech), IL-1 beta (10 ng/ml; PeproTech), and prostaglandin E2 (PGE2; 1 ug/ml; Sigma) on day 6 to generate stimulated immunogenic DCs. Tolerogenic DCs (tolDCs) were generated by treatment with various tolerogenic compounds: AhR agonist “C1” (C1; 20 nM; IMA-06201; Immunahr A B, Lund, Sweden) on days 0 and 3, TGFbeta1 (10 or 20 ng/ml; PeproTech) on day 3, and retinoic acid (2 uM; Sigma-Aldrich) on day 6. Control tolDC for comparison were established by treatment with Dexamethasone (Dex; 100 nM; Sigma-Aldrich) and Vitamin D3 (VitD3; 100 nM, StemCell Technologies) on day 3. Phenotypic stability of TolDCs was investigated by addition of LPS (0.5 ug/ml) or a pro-inflammatory cytokine cocktail consisting of TNFalpha (10 ng/ml), IL-1beta (10 ng/ml), PGE2 (1 ug/ml), and for Example 24 also IL-6 (10 ng/ml), for the last 24 hours of culture. On day 7, DCs were harvested and washed extensively before phenotyping and functional assays were performed.
In order to analyse the T cell stimulatory capacity of the generated DC populations, allogeneic MLRs were performed. DC/T cell cultures were carried out in complete medium: RPMI-1640 (Thermo Fisher) containing fetal bovine serum (FBS; 10%; Thermo Fisher), HEPES, GlutaMAX and Penicillin-Streptomycin solution. T cells (10^5 cells/well) were cultured with DCs at a T cell: DC ratio of 10:1 for 5-7 days. Proliferation was determined by incorporation of ^3H-thymidine for the last 18 hours of culture. For determination of CD4^+CD49b^+LAG3^+ Tr1 cells, cells were phenotyped as described below. For determination of CD25^hiFoxp3^+ Treg induction, the T cells from the MLR cultures were rested for additionally 7 days in complete medium containing IL-2 (20 IU/ml; PeproTech) and then subjected to phenotyping as described below.
Control DCs were differentiated from CD14^+ monocytes by culturing in GM-CSF and IL-4 for 7 days. Control DCs were either unstimulated or stimulated with LPS which was added on day 6 to generate immunogenic control DCs. […] TolDCs for comparison were established by treatment with Dex at 100 nM and VitD3 at 100 nM on day 3. On day 6, some of the DCs were treated with LPS (FIG. 5 (A); black bars) or a pro-inflammatory cytokine cocktail consisting of TNFalpha, IL-1beta and PGE2 (FIG. 5 (B); black bars) to test for phenotypical stability under various conditions. All cells were harvested on day 7 and cocultures with CD4^+ T cells were setup in an MLR setting at a T cell:DC ratio of 10:1. At the end of the 7-day cultures, proliferation of T cells was determined by ^3H-thymidine incorporation.
Various compounds were tested for their capacity to induce a tolerogenic phenotype in DCs. […] AhR agonist C1 (AhR ag) at 10 nM on days 0 and 3, TGFbeta at 10 ng/ml on day 3, and RA at 2 uM on day 6. […]

DCs [2] = test: DC expression of CD86 (flow cytometry); type: cell-based, human
Method: (§2) CD14^+ monocytes were cultured at 1.25×10^6 cells/mi for 7 days in GMP DC Medium (CellGenix, Freiburg, Germany) containing HEPES, GlutaMAX and Penicillin-Streptomycin solution (Thermo Fisher, Waltham, MA) in the presence of granulocyte-macrophage colony-stimulating factor (GM-CSF; 100 ng/ml; PeproTech, London, UK) and interleukin-4 (IL-4; 100 ng/ml; PeproTech). Cells were replenished on day 3 with fresh medium and cytokines. […]
(§3) Cell surface expression was investigated using the following fluorescently labeled antibodies: CD11c (B-Ly6), CD83 (HB15e), CD86 (BU63), ILT3 (ZM4.1), CD141 (M80), GARP (7611), CD103 (B-Ly7), MERTK (590H11G1E3), BTLA (J168-540), CD49b (P1E6-05), HLA-G (87G), LAP (FNLAP), from BD Biosciences (Franklin Lakes, NJ), BioLegend (San Diego, CA) and Thermo Fisher. DCs were washed and resuspended in staining buffer (phosphate-buffered saline supplemented with 0.5% BSA and 2 mM EDTA) and incubated with antibody for 20 min followed by washing before acquisition on a MACSQuant 10 flow cytometer (Miltenyi Biotec) and analyzed using FlowJo software (BD Biosciences). […]

DCs [3] = test: DC expression of CD103 (flow cytometry); type: cell-based, human; conditions: Example 13, FIG. 13(E); compared to control DCs
Method: as §2, §3

DCs [4] = test: DC expression of CD83 (flow cytometry); type: cell-based, human; conditions: Example 13, FIG. 13(A); C1 10 nM, TGFbeta 10 ng/ml, RA 2 uM; compared to control DCs
Method: as §2, §3

CD4^+ T cells [5] = test: Capacity of DCs to induce CD25^hiFoxp3^+ Tregs in time-extended MLR; type: cell-based, human; conditions: Example 13, FIG. 13(H); compared to control DCs
Method: as §1
In order to analyse the T cell stimulatory capacity of the generated DC populations, allogeneic MLRs were performed. DC/T cell cultures were carried out in complete medium: RPMI-1640 (Thermo Fisher) containing fetal bovine serum (FBS; 10%; Thermo Fisher), HEPES, GlutaMAX and Penicillin-Streptomycin solution. […] Proliferation was determined by incorporation of ^3H-thymidine for the last 18 hours of culture. […]

human DCs = conditions: cited from earlier work
DCs [6] = test: DC expression of ILT3 (flow cytometry); type: cell-based, human; conditions: Example 13, FIG. 13(C); compared to control DCs
Method: as §2, §3

DCs [7] = test: DC frequency of CD141^+GARP^+ cells (flow cytometry); type: cell-based, human; conditions: Example 13, FIG. 13(F); compared to control DCs
Method: as §2, §3

T cells = conditions: Bakdash et al, 2015; cited from earlier work
DCs [8] = test: DC tolerogenic index ILT3/CD86 (MFI ratio); type: cell-based, human; conditions: Example 13, FIG. 13(D); compared to control DCs
Description: The optimal tolDCs should express both low levels of co-stimulatory molecules and high levels of tolerogenic molecules. Thus, to take into account the combined effect of this, the ratio between the expression levels of representative tolerogenic and co-stimulatory molecules could be depicted as a proxy for the tolerogenic capacity of a certain subset of tolDCs. FIGS. 4 (A) and (B) show such tolerogenic index, defined as the ILT3/CD86 expression (MFI) ratio, on DCs cultured under various conditions in the absence (FIG. 4 (A); grey bars) or presence of LPS (FIG. 4 (B); black bars).

[9] = during DC differentiation and maturation

## CCN(C(=O)c1c(O)c2c(Cl)cccc2n(C)c1=O)c1ccccc1 [AhR agonist, N-ethyl-N-phenyl-5-chloro-1,2-dihydro-4-hydroxy-1-methyl-2-oxo-quinoline-3-carboxamide]
CD4^+ T cells [1]
  induction of T cell proliferation (CPM): slightly more T cell proliferation
  effect on the tolerogenic effect of RA: strengthens the tolerogenic effect of RA
DCs [2]; Example 13, FIG. 13(B), compared to control DCs
  CD86 expression (MFI) on DCs: lower expression
DCs [3]
  CD103 expression (MFI) on DCs: higher expression of CD103
DCs [4]
  CD83 expression (MFI) on DCs: lower expression
CD4^+ T cells [5]
  induction of Tregs (CD4^+CD25^+Foxp3^+): slightly more Tregs

## O=Cc1c2c(cc3c1=Nc1ccccc1-3)=Nc1ccccc1-2 [FICZ, 6-formylindolo[3,2-b]carbazole]
Human DCs; Jurado-Manzano et al, 2017
  differentiation of naïve T cells into Treg cells by treated DCs: able to induce the differentiation
Human DCs; [9]
  expression of the enzyme IDO: increased expression of the enzyme IDO
  production of pro-inflammatory cytokines: reduced production of pro-inflammatory cytokines such as IL-6 and TNF-alpha

## CC1=C(/C=C/C(C)=C/C=C/C(C)=C/C(=O)O)C(C)(C)CCC1 [RA, all-trans retinoic acid]
CD4^+ T cells [1]
  induction of T cell proliferation (CPM): less T cell proliferation
DCs [2]; FIG. 2(B), whether or not stimulated with LPS, compared to corresponding control DCs
  CD86 expression (MFI) on DCs: no resistance to upregulate CD86
DCs [6]
  ILT3 expression (MFI) on DCs: higher expression of ILT3
DCs [7]
  frequency of GARP^+CD141^+ cells: higher frequency of GARP^+CD141^+ cells
T cells
  differentiation of Treg cells: enhance the differentiation of Foxp3^+ inducible as well as IL-10 producing Treg cells
  gut-homing specificity in T cells: induce gut-homing specificity in T cells
CD4^+ T cells [5]
  induction of Tregs (CD4^+CD25^+Foxp3^+): more Tregs

## TGFbeta: transforming growth factor beta; TGFbeta1 (PeproTech) used in the examples
DCs [8]
  tolerogenic ratio (ILT3/CD86): slightly higher
CD4^+ T cells [1]
  induction of T cell proliferation (CPM): less T cell proliferation
  effect on the tolerogenic effect of RA: strengthens the tolerogenic effect of RA
DCs [3]
  CD103 expression (MFI) on DCs: slightly higher
CD4^+ T cells [5]
  induction of Tregs (CD4^+CD25^+Foxp3^+): more Tregs
